Each structure is given as a SMILES string. Active and inactive are the calls of the source. No cut-off for these calls is given here.

The target of test [1] is Calcitonin gene-related peptide type 1 receptor (Homo sapiens) (UniProt Q16602). Description: Binding affinity to CGRP receptor at 5 ug/mL.
Test [2] is described as follows: Binding affinity to quisqualate site of glutamate receptor at 5 ug/mL by AMPA binding assay.
Test [3] can be described thus: Binding affinity to regulatory site of NMDA receptor at 5 ug/mL by glycine binding assay.
The nature of test [4]: Binding affinity to VIP receptor at 5 ug/mL.
Test [5] deals with BOWES. The test can be described thus: Binding affinity to galanin receptor in human BOWES cells at 5 ug/mL. In kind it is cell-based.
The target in test [6] is T1, Neuromedin-K receptor (Homo sapiens) (UniProt P29371).
T1 sequence (whole entry): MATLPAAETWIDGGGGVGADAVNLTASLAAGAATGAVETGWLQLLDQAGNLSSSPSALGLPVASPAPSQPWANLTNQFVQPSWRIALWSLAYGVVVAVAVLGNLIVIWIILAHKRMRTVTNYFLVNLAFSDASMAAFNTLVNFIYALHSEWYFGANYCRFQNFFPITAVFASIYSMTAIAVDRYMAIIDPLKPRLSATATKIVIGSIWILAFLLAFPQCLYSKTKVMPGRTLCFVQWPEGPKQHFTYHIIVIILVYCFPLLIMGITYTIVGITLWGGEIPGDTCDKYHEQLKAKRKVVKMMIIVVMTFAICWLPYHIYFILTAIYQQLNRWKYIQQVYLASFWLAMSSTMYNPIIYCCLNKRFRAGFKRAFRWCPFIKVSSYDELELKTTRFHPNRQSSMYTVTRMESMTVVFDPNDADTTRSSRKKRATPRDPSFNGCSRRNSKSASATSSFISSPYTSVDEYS
Description: Binding affinity to NK3 tachykinin receptor at 5 ug/mL by senktide binding assay.

Test [7] has as its target Somatostatin receptor (Rattus norvegicus) (UniProt Q7TT86). The test can be described thus: Displacement of [125I]somatostatin from somatostatin receptor in rat cerebral cortices membrane at 5 ug/mL. In kind it is cell membranes. In general terms: Loss of bound radioactivity is the signal in a displacement assay; it reports binding, not function.
Test [8] can be described thus: Binding affinity to neurotensin receptor at 5 ug/mL.
A short description of test [9]: Antagonist activity at serotonin receptor in guinea pig ileum assessed as inhibition of serotonin-induced contraction. The format is functional, tissue-based. The following applies: Cavia porcellus.
The species entered for test [10] is Rattus norvegicus. Description: Displacement of [3H]NPY from neuropeptide Y receptor in rat cerebral cortices membrane at 5 ug/mL. In kind it is cell membranes.
Test [11] deals with T2, B2 bradykinin receptor (Homo sapiens) (UniProt P30411).
T2 sequence (whole entry): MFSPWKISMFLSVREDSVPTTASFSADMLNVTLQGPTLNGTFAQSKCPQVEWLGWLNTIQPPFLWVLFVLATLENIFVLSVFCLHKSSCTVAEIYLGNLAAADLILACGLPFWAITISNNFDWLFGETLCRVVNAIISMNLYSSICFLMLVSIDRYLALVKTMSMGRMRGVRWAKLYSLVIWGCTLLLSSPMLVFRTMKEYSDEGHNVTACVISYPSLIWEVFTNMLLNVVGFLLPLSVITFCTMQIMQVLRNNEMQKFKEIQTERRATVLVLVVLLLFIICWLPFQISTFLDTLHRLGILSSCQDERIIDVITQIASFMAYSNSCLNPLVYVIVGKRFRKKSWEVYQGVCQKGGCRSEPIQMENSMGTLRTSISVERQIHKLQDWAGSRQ
The test can be described thus: Displacement of [3H]bradykinin from bradykinin B2 receptor expressed in baculovirus-infected SF21 cells at 5 ug/mL.

Somatostatin receptor (Rattus norvegicus), sequence (Q7TT86 as listed by the source): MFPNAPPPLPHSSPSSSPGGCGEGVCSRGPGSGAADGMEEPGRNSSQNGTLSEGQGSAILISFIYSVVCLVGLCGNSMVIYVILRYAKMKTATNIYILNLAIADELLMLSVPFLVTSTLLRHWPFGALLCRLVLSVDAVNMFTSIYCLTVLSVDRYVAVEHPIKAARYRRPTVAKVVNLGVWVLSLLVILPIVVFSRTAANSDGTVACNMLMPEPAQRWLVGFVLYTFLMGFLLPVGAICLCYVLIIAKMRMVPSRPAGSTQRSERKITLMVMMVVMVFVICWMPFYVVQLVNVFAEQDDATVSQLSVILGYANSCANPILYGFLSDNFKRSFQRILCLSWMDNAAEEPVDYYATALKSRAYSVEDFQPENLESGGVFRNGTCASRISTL
Calcitonin gene-related peptide type 1 receptor (Homo sapiens), sequence (Q16602 whole entry): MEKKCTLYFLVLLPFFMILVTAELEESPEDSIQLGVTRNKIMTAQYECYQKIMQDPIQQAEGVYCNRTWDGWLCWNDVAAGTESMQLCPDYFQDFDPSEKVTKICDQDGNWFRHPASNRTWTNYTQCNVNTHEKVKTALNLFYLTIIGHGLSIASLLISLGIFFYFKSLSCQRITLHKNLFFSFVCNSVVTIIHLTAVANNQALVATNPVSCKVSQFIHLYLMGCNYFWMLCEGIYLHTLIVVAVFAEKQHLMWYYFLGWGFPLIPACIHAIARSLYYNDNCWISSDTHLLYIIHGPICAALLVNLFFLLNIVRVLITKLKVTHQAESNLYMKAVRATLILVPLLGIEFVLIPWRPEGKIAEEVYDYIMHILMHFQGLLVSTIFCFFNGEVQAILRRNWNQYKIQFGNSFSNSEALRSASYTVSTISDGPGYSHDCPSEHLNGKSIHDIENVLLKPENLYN

Turning to `NCCc1c(C(CN)c2c[nH]c3cc(Br)ccc23)[nH]c2cc(C(CN)c3c[nH]c4cc(Br)ccc34)c(O)cc12` (racemic), the outcome in test [1], in test [2], in [3], in test [4], in [5] and in test [6] was inactive. In addition, in test [8], the outcome was inactive. The outcome in [7] was Active.

As a reminder, the IC50 is the concentration that gives 50% inhibition. Usually inhibition stands for the relative decrease from the control value, in per cent. Turning to `NCCc1c(C(CN)c2c[nH]c3cc(Br)ccc23)[nH]c2cc(Br)ccc12` (racemic), the half-maximal inhibitory concentration (IC50) in test [9] turned out to be 10 µM. Besides, the result in [1], in test [2], in [3], in test [4], in [5] and in test [6] was inactive. The outcome in test [8] was inactive. Further, the inhibition in test [10] turned out to be 67%; in [11], 89%. In test [7], this molecule displayed an Activity of 91%.

For `NCCc1c(C(CN)c2c[nH]c3cc(Br)ccc23)[nH]c2ccc(O)cc12` (racemic), the IC50 in test [9] worked out at 50 µM. Also, the outcome in [1], in test [2], in [3], in test [4], in test [5] and in test [6] was inactive. Also, in test [8], the outcome was inactive. In addition, the inhibition in test [10] and in test [11] was 63% each time. This molecule displayed an Activity in [7] of 87%.

As to `NCCc1c(C(CN)c2c[nH]c3cc(Br)ccc23)[nH]c2cc(C(CN)c3c[nH]c4cc(Br)ccc34)c(O)cc12` (stereo in doubt; form 2), the results for the inhibition in test [10] and in test [11] were 62% and 93%, respectively.

As to `NCCc1c(C(CN)c2c[nH]c3cc(Br)ccc23)[nH]c2cc(C(CN)c3c[nH]c4cc(Br)ccc34)c(O)cc12` (stereo in doubt; form 1), the figures for the inhibition in [10] and in test [11] were 90% and 100%, respectively.

With `NCCc1c(C(CN)c2c[nH]c3cc(Br)ccc23)[nH]c2ccc(O)c(C(CN)c3c[nH]c4cc(Br)ccc34)c12` (racemic), the 50% inhibitory concentration (IC50) in test [9] came to 2 µM.

For the molecule `NCCc1c[nH]c2ccc(O)c(C(CN)c3c[nH]c4cc(Br)ccc34)c12` (racemic), the half-inhibitory concentration (IC50) in [9] worked out at 100 µM.

Source of the values: ChEMBL document CHEMBL1159283, “Further brominated bis- and tris-indole alkaloids from the deep-water New Caledonian marine sponge Orina Sp” (J Nat Prod, 1995).
